Measurements published in patent publication US20230380460A1 (priority 2020, published 2023).

Experiments:
Format in all cases: cell-based
[1] = system: total flora (total plate count); assay: Spoilage analysis of cooked emulsified sausage: total plate count; conditions: cooked emulsified sausage during storage
Procedure: (§1) A part was inoculated on surface with Listeria monocytogenes for the challenge test and the other part was kept safe for shelf life microbiological study as well as organoleptic and physical characterization. Cooked emulsified sausages were then stored in vacuum packaging.
(§2) Microbiological analysis was performed according to current standard EC regulation 2073/2005, at d0 after packaging, several days during the storage (from D4 to D7 or D14 according to the studies).
(§3) For cooked emulsified sausage, 14 days of shelf-life with 7 days of storage at 4° C. and 7 days at 8° C., to simulate a break in the cold chain (standardized method NF V01-003).
(§4) Group of microorganisms counts performed are listed below: • Total plate count (NF EN ISO 4833-1), • Lactic acid bacteria (NF ISO 15214) both mesophilic and psychotrophic • Enterobacteriaceace (ISO 21528-2), • Pseudomonas sp. (EN ISO 13720), • Brochothrix thermosphacta • Anaerobic enumeration of sulfito-reducing bacteria (NF V08-061), • Challenge test Listeria monocytogenes (NF-EN ISO 11290-2). • Challenge test Salmonella (NF-EN ISO 6579-1).

[2] = system: Listeria monocytogenes; conditions: fresh ground sausage, d8
[3] = system: lactic flora; assay: Spoilage analysis of cooked emulsified sausage: lactic flora; conditions: cooked emulsified sausage during storage
Procedure: as §1, §2, §3, §4

Q: How did the “Growth of total flora” value [1] turn out when lactate was run?
A: normal growth

Q: And the “Δ log cfu/g of Listeria growth versus untreated control” value [2]?
A: −0.9 log cfu/g

Q: What about the “Growth of lactic flora” value [3] of the same substance?
A: normal growth
